From US5097013A, “Novel peptides possessing a macrophage chemotactic activity” (Kao Corporation, priority 1988, dated 1992)
Square brackets hold non-standard residues; d marks the D form. Peptide text beside a SMILES is read from it. * marks the point of attachment. Fmoc = O=C(OCC1c2ccccc2-c2ccccc21)*; dNle = CCCC[C@@H](N)C(=O)O

Tested on: macrophage (peritoneal exudate cells)
Experiment: Macrophage chemotactic activity, 48 well chemotaxis chamber
Format: cell-based, guinea pig
Settings: Table 2; test described in Example 64; relative scale, Compound No. 1 = 100
Procedure: Macrophage chemotactic activity in the examples was determined as follows.
Peritoneal exudate cells (usually more than 95% were macrophage) collected from guinea pig in which liquid paraffin had previously been peritoneally injected 3 or 4 days before were used as macrophage in a cell concentration of 2×10^6 /ml.
A sample which activity was to be determined was charged in lower wells of a 48 well chemotaxis chamber and a polycarbonate membrane having a pore size of 5 μm was put thereon, and the macrophage suspension was charged in upper wells followed by incubation at 37° C. for 90 minutes in a CO2 incubator. After the incubation, adherent cells on the non-chemotactic surface was removed, fixed and subjected to Giemsa staining and then to inclusion treatment. Then, the cells on the chemotactic surface were microscopically (×400) counted and the cell count was made MCF activity.
The peptide synthesized in Example 5 was dissolved in 5 mM MgCl2 and the solution was suitably diluted with 0.5% FCS-containing Hanks' medium.

Compound | Activity (macrophage chemotactic activity)
CC(C)C[C@H](NC(=O)[C@H](Cc1c[nH]c2ccccc12)NC(=O)OCC1c2ccccc2-c2ccccc21)C(=O)NCC(=O)N[C@@H](CCCNC(=N)N)C(=O)N[C@@H](CCC(=O)O)C(=O)N[C@@H](CC(=O)O)C(=O)NCC(=O)N[C@@H](CO)C(=O)N[C@@H](CCC(=O)O)C(=O)O [Compound 13, Fmoc-L-Trp-L-Leu-Gly-L-Arg-L-Glu-L-Asp-Gly-L-Ser-L-Glu-OH] (Fmoc-WLGREDGSE-OH) | < 10
CC(C)C[C@H](NC(=O)[C@@H](N)Cc1c[nH]c2ccccc12)C(=O)NCC(=O)N[C@@H](CCCNC(=N)N)C(=O)O [Compound 27, H-L-Trp-L-Leu-Gly-L-Arg-OH] (H-WLGR-OH) | < 10
CC(C)C[C@H](NC(=O)[C@H](Cc1c[nH]c2ccccc12)NC(=O)OCC1c2ccccc2-c2ccccc21)C(=O)NCC(=O)N[C@@H](CCCNC(=N)N)C(=O)N[C@@H](CCC(=O)O)C(=O)N[C@@H](CC(=O)O)C(=O)O [Compound 29, Fmoc-L-Trp-L-Leu-Gly-L-Arg-L-Glu-L-Asp-OH] (Fmoc-WLGRED-OH) | < 10
CC(C)C[C@H](NC(=O)[C@@H](Cc1c[nH]c2ccccc12)NC(=O)OCC1c2ccccc2-c2ccccc21)C(=O)NCC(=O)N[C@@H](CCCNC(=N)N)C(=O)N[C@@H](CCC(=O)O)C(=O)N[C@@H](CC(=O)O)C(=O)O [Compound 30, Fmoc-D-Trp-L-Leu-Gly-L-Arg-L-Glu-L-Asp-OH] (Fmoc-[dW]LGRED-OH) | < 10
CC(C)C[C@@H](NC(=O)[C@H](Cc1c[nH]c2ccccc12)NC(=O)OCC1c2ccccc2-c2ccccc21)C(=O)NCC(=O)N[C@@H](CCCNC(=N)N)C(=O)N[C@@H](CCC(=O)O)C(=O)N[C@@H](CC(=O)O)C(=O)O [Compound 32, Fmoc-L-Trp-D-Leu-Gly-L-Arg-L-Glu-L-Asp-OH] (Fmoc-W[dL]GRED-OH) | < 10
CC(C)C[C@H](NC(=O)[C@H](Cc1c[nH]c2ccccc12)NC(=O)OCC1c2ccccc2-c2ccccc21)C(=O)NCC(=O)N[C@@H](CCCNC(=N)N)C(=O)N[C@H](CCC(=O)O)C(=O)N[C@@H](CC(=O)O)C(=O)O [Compound 34, Fmoc-L-Trp-L-Leu-Gly-L-Arg-D-Glu-L-Asp-OH] (Fmoc-WLGR[dE]D-OH) | < 10
CC(C)C[C@H](NC(=O)[C@H](Cc1c[nH]c2ccccc12)NC(=O)OCC1c2ccccc2-c2ccccc21)C(=O)NCC(=O)N[C@@H](CCCNC(=N)N)C(=O)N[C@@H](CCC(=O)O)C(=O)N[C@H](CC(=O)O)C(=O)O [Compound 39, Fmoc-L-Trp-L-Leu-Gly-L-Arg-L-Glu-D-Asp-OH] (Fmoc-WLGRE[dD]-OH) | 10
H-FLGREDGSE-OH [Compound 7] | < 10
H-KWLGREDGSE-OH [Compound 3] | 80
H-L-Glu-L-Asp-Gly-L-Ser-L-Glu-OH [Compound 25] | < 10
H-L-Trp-L-AIa-Gly-L-Arg-L-Glu-L-Asp-Gly-L-Ser-L-Glu-NH2 [Compound 44] | < 10
H-L-Trp-L-Leu-Gly-L-Arg-L-Glu-OH [Compound 24] | < 10
H-LGREDGSE-OH [Compound 51] | < 10
H-MWLGRED-OH [Compound 47] | < 10
H-WAGRED-OH [Compound 42] | < 10
H-WAGREDGSE-OH [Compound 9] | < 10
H-WGGREDGSE-OH [Compound 52] | < 10
H-WIIREDGSE-OH [Compound 43] | < 10
H-WLGKEDGSE-OH [Compound 8] | < 10
H-WLGLEDGSE-OH [Compound 49] | 10
H-WLGRED-NH2 [Compound 26] | 10
H-WLGRED-OH [Compound 23] | 10
H-WLGREDG-OH [Compound 22] | < 10

Compound | Activity (macrophage chemotactic activity)
H-WLGREDGAE-OH [Compound 20] | < 10
H-WLGREDGCE-OH [Compound 17] | < 10
H-WLGREDGLL-NH2 [Compound 46] | < 10
H-WLGREDGS-OH [Compound 21] | 10
H-WLGREDGSD-OH [Compound 4] | 10
H-WLGREDGSE-NH2 [Compound 12] | < 10
H-WLGREDGSE-OH [Compound 1, H-L-Trp-L-Leu-Gly-L-Arg-L-Glu-L-Asp-Gly-L-Ser-L-Glu-OH] | 100
H-WLGREDGSQ-OH [Compound 28] | < 10
H-WLGREDG[dS]E-OH [Compound 36] | < 10
H-WLGREEGS-OH [Compound 38] | < 10
H-WLGRENGSE-OH [Compound 5] | < 10
H-WLGRGDGSE-OH [Compound 48, H-L-Trp-L-Leu-Gly-L-Arg-Gly-L-Asp-Gly-L-Ser-L-Glu-OH] | < 10
H-WLGRQDGSE-OH [Compound 2] | 80
H-WLGRQNGSQ-NH2 [Compound 11, H-L-Trp-L-Leu-Gly-L-Arg-L-Gln-L-Asn-Gly-L-Ser-L-Gln-NH2] | < 10
H-WLGR[dE]DGSE-OH [Compound 41] | < 10
H-WLGYEDGSE-OH [Compound 18] | 50
H-WLG[dR]EDGSE-OH [Compound 14] | 80
H-WLIREDGSE-OH [Compound 6] | < 10
H-WPREDGSE-OH [Compound 10] | < 10
H-WVREDGSE-OH [Compound 50] | < 10
H-W[dL]GREDGSE-OH [Compound 37] | < 10
H-W[dNle]GREDGSE-OH [Compound 15] | < 10
H-[dW]LGREDGSE-OH [Compound 16] | < 10

Same assay, conditions: dissolved in 5 mM MgCl2, diluted with 0.5% FCS-containing Hanks' medium

Compound | macrophage chemotactic activity (in words)
H-WLGREDGSE-OH [Compound 1, H-L-Trp-L-Leu-Gly-L-Arg-L-Glu-L-Asp-Gly-L-Ser-L-Glu-OH] | high activities

Same assay, conditions: relative activity, Table 1 (culture supernatant of hybridoma MCF-A51 = 100.0, medium alone 10.0); 3 × 10^-8 M; dissolved in 5 mM MgCl2, diluted with 0.5% FCS-containing Hanks' medium

Compound | Macrophage Chemotactic Activity
H-WLGREDGSE-OH [Compound 1, H-L-Trp-L-Leu-Gly-L-Arg-L-Glu-L-Asp-Gly-L-Ser-L-Glu-OH] | 41.4
